Here are results for 2 compounds from patent US8198292B2, “Vinpocetine and eburnamonine derivatives for promoting bone growth, treating renal damage and cancer, and devices thereof” (Osteogenex, Inc., priority 2008, dated 2012).

The structures appear in SMILES notation. Counter-ions that a name gives are not always drawn.

What all share (type): in vivo
Assay [1] relates to C57BL/6 mice. The assay is described as follows: Trabecular bone volume of the proximal tibia by micro-CT, daily i.p. treatment for 30 days. The settings on record: for increase in tibia long bone bone-volume/total volume over baseline control: 30 days, micro-CT. The protocol: Using the assay described above and in Journal of Bone and Mineral Research 2006, 21(11), 1738-1749 (incorporated herein in its entirety), compounds of the present invention can be identified as promoting bone growth. For example, the mouse test animal is treated with a predetermined dose of a SOST antagonist candidate for a complete dosing schedule. A control mouse is treated with a control solution, preferably a non-irritating buffer solution or other carrier. Once the dosing schedule has been completed, both test and control animals are examined with sacrifice using micro-CT to determine the quantity of bone formation present.
(§1) Four month old male C57BL/6 mice were treated daily with saline vehicle or the sclerostin inhibitor of eburnamonine phosphate at several doses (via i.p) for 30 days. Study endpoints included a biochemical marker of bone formation; osteocalcin, measured by EIA Elisa, and measurement of trabecular bone volume by mico-CT analysis on the proximal tibia and spine (lumbar 5). […] See also FIG. 3, showing increase in bone volume for the tibia: 5 mg/kg (D) and 0.33 mg/kg (E).

Assay [2] relates to C57BL/6 mice. The experiment in a line: Serum osteocalcin (bone formation marker) by EIA Elisa, daily i.p. treatment for 30 days. Conditions: for increase in osteocalcin serum levels: FIG. 4. Here is the method: as §1
Assay [3] deals with C57BL/6 mice. The experiment in a line: Bone volume of the spine (lumbar 5) by micro-CT, daily i.p. treatment for 30 days. Conditions: i.p. daily 30 days, dose not stated. Here is the method:
as §1

In assay [4] the test system is C57BL/6 mice. The assay is described as follows: Bone volume of the tibia by pQCT after IP treatment (procedure of Example 2). Conditions: 10 mg/kg IP. The protocol: Four month old male C57BL/6 mice were treated daily with saline vehicle or the sclerostin inhibitor of eburnamonine phosphate at several doses (via i.p) for 30 days. […] See also FIG. 3, showing increase in bone volume for the tibia: 5 mg/kg (D) and 0.33 mg/kg (E). […] Using the procedure set forth in Example 2, vinpocetine citrate was investigated for bone growth.

For the compound `CCC12CCCN3CCc4c(n(c5ccccc45)C(=O)C1)C32` (stereo not drawn) [eburnamonine phosphate], the “increase in tibia long bone bone-volume/total volume over baseline control” value in the assay with C57BL/6 mice [1] (FIG. 1 (B), 5 mg/kg i.p. daily) was determined as 17%; in the assay on C57BL/6 mice [1] (FIG. 1 (C), 1 mg/kg i.p. daily), 10%. Also, the “increase in tibia long bone bone-volume/total volume compared to baseline controls” value in the assay on C57BL/6 mice [1] (FIG. 3 (D), 5 mg/kg) was found to be 9%; in the assay with C57BL/6 mice [1] (FIG. 3 (E), 0.33 mg/kg), 17%. The “percent change in serum osteocalcin increase versus saline controls” value with C57BL/6 mice [2] (FIG. 2, 5 mg/kg i.p. daily, 30 days, mice) was 35%. The “increase in osteocalcin serum levels” value in the assay on C57BL/6 mice [2] (0.33 mg/kg, mice) was 39%. Further, in the assay with C57BL/6 mice [3], the “increase in bone volume of lumbar 5 (U-CT)” value amounted to 52%.
Regarding `CCOC(=O)C1=CC2(CC)CCCN3CCc4c(n1c1ccccc41)C32` (stereo not drawn) [vinpocetine citrate], the “increase in bone volume of the tibia (pQCT)” value in the assay with C57BL/6 mice [4] worked out at 8%. Besides, the “increase in osteocalcin serum levels” value in the assay with C57BL/6 mice [2] (10 mg/kg, over baseline) worked out at 62%.
